Measured values: patent US20220026411A1, “ANALYTICAL METHODS AND ARRAYS FOR USE IN THE SAME” (SENZAGEN AB, priority 2019, published 2022)
Like-named read-outs stand apart in the source and are kept apart here.

Columns and labels:
[1] = cited from earlier work; for True group: true group belonging of external test chemicals; for Function in study: training data set, as defined by available literature and expert consensus
SenzaCell [2] = test: GARDair assay: gene expression signature (GRPS, 28 genes) of chemically exposed DC-like cells, SVM classification; settings: finalized GARDair prediction model; RS if mean SVM decision value (n=3) > 0; 24 h exposure at GARD input concentration
Procedure: (§1) All exposures were performed in repeated triplicate experiments in a controlled setting, thus generating a coherent dataset with high statistical power optimized for subsequent biomarker discovery.
(§2) A prediction model was trained and frozen, based on a Support Vector Machine (SVM), using the samples of the training data set with a binary “function in study” (respiratory sensitizer/non-respiratory sensitizer) as the dependent variable, and the gene expression values of the GRPS as the independent variables (i.e. predictors), see also Table 4.
(§3) Having established an optimized prediction model and associated protocols, the assay was challenged with two sets of external samples, referred to as test data sets.
(§4) The human myeloid leukemia-derived cell line SenzaCell (available through ATCC), acting as an in vitro model of human Dendritic Cell (DC), is maintained in a-MEM (Thermo Scientific Hyclone, Logan, Utah) supplemented with 20% (volume/volume) fetal calf serum (Life Technologies, Carlsbad, Calif.) and 40 ng/ml recombinant human Granulocyte Macrophage Colony Stimulating Factor (rhGM-CSF) (Miltenyi Biotec, Germany). A media change during expansion is performed every 3-4 days. Working stocks of cultures are grown for a maximum of 16 passages or two months after thawing. For chemical stimulation of cells, exposed cells are incubated for 24 h at 37° C., 5% CO2 and 95% humidity.
(§5) Some Test Substances were poorly dissolved in cell media; therefore, the maximum soluble concentration was assessed as well. The Test Substance that was to be tested was titrated to concentrations ranging from 1 μM to the maximum soluble concentration in cell media. For freely soluble Test Substances, 500 μM was set as the upper limit of the titration range. For Test Substances dissolved in DMSO, the in-well concentration of DMSO was 0.1%. After incubation for 24 h at 37° C., 5% CO2 and 95% humidity, harvested cells were stained with the viability marker Propidium Iodide (PI) (BD Bioscience, USA) and analyzed by flow cytometry. PI-negative cells were defined as viable, and the relative viability of cells stimulated with each concentration in the titration range was calculated as
(§6) For non-toxic Test Substances, a concentration of 500 μM was used if possible. For non-toxic Test Substances that were insoluble at 500 μM in cell media, the highest soluble concentration was used. Whichever of these three criteria was met, only one concentration will be used for gene expression analysis. The concentration to be used for any given chemical was termed the ‘GARD input concentration’.
(§7) Once the GARD input concentration for Test Substances to be assayed was established, the cells were stimulated again as described above, this time only using the GARD input concentration. All assessments of Test Substances and Benchmark Controls were assayed in biological triplicates, performed at different time-points and using different cell cultures. After incubation for 24 h at 37° C., 5% CO2 and 95% humidity, cell culture was lysed in TRlzol reagent (Life Technologies) and stored at −20° C. until RNA was extracted. In parallel, a small sample of stimulated cells was taken for PI staining and analysis with flow cytometry, to ensure the expected relative viability of stimulated cells was reached.

SenzaCell [3] = tested on: SenzaCell
Procedure: as §1, §2, §3, §4, §5, §6, §7

Prediction Test set 1 (SenzaCell [2])	SMILES	True group [1]	further results
–	Sc1nc2ccccc2s1 [2-Mercaptobenzothiazole]	NRS	–
–	Nc1ccccc1O [2-aminophenol]	–	Function in study [1]: SS/NRS
NRS	O=C(O)c1ccc(O)cc1 [4-Hydroxybenzoic acid]	NRS	–
NRS	OCC=Cc1ccccc1 [Cinnamyl alcohol]	NRS	–
–	C[S+](C)[O-] [DMSO]	NRS	Prediction Test set 2 (SenzaCell [2]): NRS
NRS	C=CCc1ccc(O)c(OC)c1 [Eugenol]	NRS	–
NRS	OCC(O)CO [Glycerol]	–	–
NRS	CC=Cc1ccc(O)c(OC)c1 [Isoeugenol]	NRS	–
NRS	CCCCCCCC(=O)O [Octanoic acid]	NRS	–
–	Oc1ccccc1 [Phenol]	–	Prediction Test set 1 (SenzaCell [3]): NRS
NRS	Oc1cccc(O)c1 [Resorcinol]	–	–
–	O=C(O)c1ccccc1O [Salicylic acid]	NRS	–
–	Clc1ccccc1 [chlorobenzene]	–	Prediction Test set 2 (SenzaCell [2]): NRS
–	CCCCCCC(C=O)=Cc1ccccc1 [hexylcinnamic aldehyde]	–	Function in study [1]: SS/NRS
–	CC1(C)S[C@@H]2[C@H](NC(=O)Cc3ccccc3)C(=O)N2[C@H]1C(=O)O [penicillin G]	–	Function in study [1]: SS/NRS
–	[K+].[K+].[O]=[Cr](=[O])([O-])[O][Cr](=[O])(=[O])[O-] [potassium dichromate]	–	Function in study [1]: SS/NRS

SMILES	Prediction Test set 1 (SenzaCell [2])	True group [1]	further results
O=Cc1ccccc1 [Benzaldehyde]	NRS	–	–
O=[N+]([O-])c1ccc(Cl)c([N+](=O)[O-])c1 [DNCB]	NRS	NRS	Prediction Test set 2 (SenzaCell [2]): NRS
CCOC(=O)c1ccccc1C(=O)OCC [Diethyl phthalate]	NRS	NRS	–
Nc1ccc(N)cc1 [PPD]	NRS	NRS	Prediction Test set 2 (SenzaCell [2]): NRS
CCCCCCCCCCCCOS(=O)(=O)[O-].[Na+] [SDS]	NRS	NRS	–
